{"source": "patent US20160280670A1", "about": "“NOVEL COMPOUNDS FOR REGENERATION OF TERMINALLY-DIFFERENTIATED CELLS AND TISSUES” (ACOUSIA THERAPEUTICS GMBH, priority 2013, published 2016)", "test_system": "inner ear progenitor cells from the postnatal sensory organ of the mouse (differentiated sensory epithelial patches, \"mini ears\")", "assay": "Screening assay: EdU proliferation in differentiated inner ear progenitor sphere patches (\"mini ears\")", "assay_type": "cell-based", "details": "test item 5 μM for 96 h", "text": "A screening assay was employed according to an experimental protocol that enables the isolation of inner ear progenitor cells from the postnatal sensory organ of the mouse preparations in vitro. These isolated progenitors generate typical spheres that express a comprehensive set of marker genes that define the early developing sensory epithelium in the progenitor cell state. Under appropriate conditions these spheres can differentiate into epithelial patches that express marker genes that are characteristic of differentiating hair cells and supporting cells as found in the native organ of Corti. These differentiated sensory epithelial patches, tagged “mini ears”, can be generated in sufficient numbers for screening purposes in a low-throughput format. For an appropriate read-out, dedifferentiation was detected with three parameters: (i) labelling of Sox2 expression (Sox2=transcription factor SRY (sex determining region Y-box 2), (ii) an increase in the incorporation of EdU indication proliferation (EdU=thymidine analogue 5-Ethynyl2′-deoxyuridine), and (iii) labelling using the hair cell marker Myosin VIIA.\nCompounds were screened at a standard concentration of 5 μM. […]\nFor ease of comparison the number of EdU positive cells was normalized to the DMSO only condition. Thus, the proliferation activity is expressed as “fold EdU positive cells”. […]", "data": [{"smiles": "C[C@](N)(Cc1c[nH]c2ccccc12)c1nc(C(=O)NC2CCCCC2)co1.Cl", "note": "[Compound 13, (S)-2-(2-amino-1-(1H-indol-3-yl)propan-2-yl)-N-cyclohexyloxazole-4-carboxamide hydrochloride]", "values": [{"measurement": "Mean percentage of EdU positive cells", "setting": "EdU for the last 5 hours, patches after 14 days differentiation", "value": 3.59, "unit": "%"}, {"measurement": "Fold EdU positive re DMSO (proliferation activity, \"fold EdU positive cells\")", "setting": "number of EdU positive cells normalized to DMSO only condition, hydrochloride", "value": 2.04, "unit": "fold"}]}]}
